# Laboratory results as given in PMC3909264, “A Novel Acylaminoimidazole Derivative, WN1316, Alleviates Disease Progression via Suppression of Glial Inflammation in ALS Mouse Model” (PLoS ONE, 2014).
# Structures can show the parent of a compound that is named as a salt.
# Assays:
# [1] = Complexing with protein in human serum; format: in vitro ADME; settings: human sera, unpublished data
# [2] = tested on: total GSH in differentiated SH-SY5Y cells; experiment: Measurement of intracellular glutathione (GSH/GSSG-Glo); format: cell-based, human; settings: 1–20 µM, 8 h
# Protocol: Differentiated SH-SY5Y cells were treated with various concentrations of WN1316 (1–20 µM) or vehicle control (DMSO). After 8 h incubation, the cellular oxidized (GSSG) and reduced glutathione (GSH) levels were measured using the GSH/GSSG-Glo™ Assay kit (Promega) according to the manufacturer’s instructions. GSH and GSSG levels were normalized to protein concentrations.
# ALS(SOD1^G93A) mice = experiment: Post-onset oral administration in ALS(SOD1^G93A) mice: motor function, body weight, survival; format: in vivo
# Protocol: In addition, congenic ALS(SOD1^G93A) transgenic mice on a B6 background were also generated by crossing B6SJL-TgN(SOD1-G93A)1Gur [ALS(SOD1^G93A)] males (Jackson Laboratory) to B6 females for more than 11 generations. Both congenic ALS mice were used throughout this study.
# The lines were maintained as hemizygotes by mating ALS(SOD1^H46R) and ALS(SOD1^G93A) males with B6 females. Offspring were genotyped by PCR using genomic DNA from tail tissue. Mice were housed at 23°C with a 12 h light/dark cycle, in which water and food was available ad libitum. The condition of each animal was monitored weekly initially and then daily after disease onset. The lifespan was determined by the days from disease onset to the endpoint, in which mouse lost active and/or spontaneous movement. All animal experimental procedures were approved by the Institutional Animal Care and Use Committee at Tokai University.
# WN1316 was dissolved in MQ water, and diluted with physiological saline. ALS(SOD1^H46R) transgenic mice were given WN1316 via gastric tube (CAT.No.4202, Fuchigami) at a dose of either 1 µg, 10 µg or 100 µg/5 ml/kg body weight. ALS(SOD1^G93A) transgenic mice were given 10 µg/kg WN1316. Animals simultaneously treated with physiological saline (vehicle group, 5 ml/kg) were used as controls.
# To determine the onset of motor dysfunction in ALS(SOD1^H46R) transgenic mice, we adopted a balance beam test as previously described in detail. To determine the onset of motor dysfunction in ALS(SOD1^G93A) transgenic mice, we adopted both balance beam and grip strength tests. Grip strength test was assessed using a traction meter (BrainScience Idea Co., Ltd.). Each mouse was given three trials, and the highest limb strength score was recorded. For ALS(SOD1^G93A) transgenic mice, grip strength tests were started at 11 weeks of age and performed twice a week until an over 20% reduction compared with the initial limb strength score at 11 weeks of age was observed. Finally, a grade 3 in the balance beam test and over 20% reduction of limb strength score were defined as the sign of the disease onset in ALS(SOD1^G93A) transgenic mice.
# The gross phenotypes were measured blindly. The body weight of each mouse was measured weekly initially and then daily after disease onset. Mice were assessed for gross behavior every week from 12 weeks of age in ALS(SOD1^H46R) mice and from 11 weeks of age in ALS(SOD1^G93A) mice until the endpoint. In particular, hind limb movement and rearing behavior of each animal were monitored weekly from 12 weeks of age until the end stage. The days from the disease onset to the endpoint were counted individually as the survival interval.
# We assessed motor performance and coordination, and balance in the mice by the balance-beam test, vertical pole test, and footprint analysis as previously described in detail and grip strength test as described above. In brief, the balance-beam test was performed every day after the onset until mice were unable to stay on the bar. […] The highest vertical ascending distance was scored. […]
# To evaluate the spontaneous motor activities in mice, we conducted cage activity and rearing performance tests by using SUPERMEX with infrared ray sensor monitor (Muromachi Kikai). Both cage activity and rearing performance were monitored for 2 consecutive nights starting at 18 weeks and 21 weeks of age in ALS(SOD1^H46R) mice and at 13 weeks, 17 weeks and 21 weeks of age in ALS(SOD1^G93A) mice. […]
structure (smiles),measurement,setting,value
"Cc1cc(C)c(N(C)CC(=O)Nc2nc(-c3ccccn3)c[nH]2)c(C)c1 [WN1316, 2-[mesityl(methyl)amino]-N-[4-(pyridin-2-yl)-1H-imidazol-2-yl] acetamide trihydrochloride]",protein complexing in serum,[1],complexes with protein
same,total GSH level,[2],upregulation of total GSH level
same,impact including weight gain or loss,ALS(SOD1^G93A) mice; 10 µg/kg/day p.o.,No impact
same,post-onset life span (survival interval),"ALS(SOD1^G93A) mice; 10 µg/kg/day p.o., n = 8, mean ± SD (vehicle 57.9±6.0)",66.1 ± 12.0 days
same,balance beam test: duration from onset to the day the mouse was unable to stay on the bar,"ALS(SOD1^G93A) mice; 10 µg/kg/day p.o., n = 8, mean ± SEM (vehicle 39.3±2.1)",47.1 ± 3.0 days
same,prolongation of post-onset survival,"ALS(SOD1^G93A) mice; 10 µg/kg/day p.o., vs vehicle",14%
same,motor performance by footprint analysis,"ALS(SOD1^G93A) mice; 10 µg/kg/day, 20 weeks of age (late symptomatic stage), vs vehicle",sustained motor performance
